What was measured:
[1] = system: MC-38 tumors; assay: Anti-tumor efficacy of Compound 1 with and without anti-PD-1 in the subcutaneous MC-38 model (Example 4); assay type: in vivo, Mus musculus; conditions: for MST: endpoint tumor volume 2000 mm^3; for T/C / TGI: Day 12
Experimental: Tumor sizes were measured three times a week in two dimensions using a caliper, and the volume expressed in mm^3 using the formula: V=0.5 a×b^2 where a and b are the long and short diameters of the tumor, respectively. The tumor sizes were then used for the calculations of both tumor growth inhibition (TGI) and T/C values.
TGI is calculated for each group using the formula: […]
TVTreatment_DayN is the average tumor volume of a treatment group on a given day, TVTreatment_Day0 is the average tumor volume of the treatment group on the first day of treatment, TVVehicle_DayN is the average tumor volume of the vehicle control group on a given day, and TVVehicle_Day0 is the average tumor volume of the vehicle group on the first day of treatment.
The T/C value (in percent) is an indication of antitumor effectiveness, T/C (%)=RTVTreatment/RTVControl×100% (RTVTreatment: the mean RTV of the treatment group; RTVControl: the mean RTV of the vehicle treated group). RTV (relative tumor volume)=TVDayN/TVDay0. TVDayN and TVDay0 is the tumor volume on day N and Day 0 respectively. T/C (%)≤42% is considered as significant antitumor activity and <10% is considered as highly significant antitumor activity by the National Cancer Institute criteria.
Animal survival curve: When an individual animal reached to the termination endpoint (TV>2000 mm^3), the mouse was euthanized. The time from treatment initiation to the termination was deemed as its survival time. Survival curve was plotted by Kaplan-Meier method. Median survival time (MST) was calculated for each group. Increase of life span (ILS) was calculated according to the following formula: […]
ILS (%)>25% is considered as a biologically significant survival benefit.
The tumor volume between different groups was analyzed by two-way repeated measures ANOVA. Dunnett post hoc test was used for the comparisons with vehicle group. All data analyzed using GraphPad Prism 6.0. P<0.05 is considered to be statistically significant.
Female C57BL/6 mice were inoculated subcutaneously at right flank with MC-38 cells for tumor development. Six days after tumor inoculation, 64 mice with tumor size ranging from 50-100 mm^3 (average tumor size 71 mm^3) were selected and assigned into 8 groups using stratified randomization with 8 mice per group based upon their tumor volumes. The treatments were started from the day of randomization (defined as D0), Group 1 was treated with Vehicle (Tween 80:Ethanol:Saline—5:5:90 v/v/v), s.c., qd×14, Group 2 was treated with Anti-PD-1 10 mg/kg i.p. q4d×4, Group 3 was treated with Compound 1 3 mpk qd×5, sc followed by 1 mpk, qd×9, sc, Group 4 was treated with Compound 1 3 mpk qd×5, sc followed by 1 mpk, qd×9, sc+anti PD-1 q4d×4, ip, Group 5 was treated with Compound 1 1 mpk qd×5, sc followed by 0.3 mpk, qd×9, sc, Group 6 was treated with Compound 1 1 mpk qd×5, sc followed by 0.3 mpk, qd×9, sc+anti PD-1 q4d×4, ip, Group 7 was treated with Compound 1 0.3 mpk qd×5, sc followed by 0.1 mpk, qd×9, sc and Group 8 was treated with Compound 1 0.3 mpk qd×5, sc followed by 0.1 mpk, qd×9, sc+anti PD-1 q4d×4, ip. The tumor sizes were measured three times per week during the treatment. The entire study was terminated on D56 after start of the treatment. […]
The MC-38 tumor cells were maintained in vitro as a monolayer culture in DMEM medium supplemented with 10% heat inactivated fetal bovine serum and 100 μg/mL penicillin streptomycin at 37° C. in an atmosphere of 5% CO2 in air. The tumor cells were routinely subcultured twice weekly by trypsin-EDTA treatment. The cells growing to a confluency around 70%-80% were harvested and counted for tumor inoculation. The cultured MC-38 were harvested, re-suspended in base medium at a density of 1×10^7 cells/mL with viability >90%. Each mouse was inoculated subcutaneously at the right flank with 1×10^6 cells in 0.1 ml base medium for tumor development. […]

[2] = system: CT26 tumors; assay: CT26 model, Compound 1 5-day ON 2-day OFF with and without anti-PD-1 (Example 2B, similar experiment, Tables 2B-5/2B-6); assay type: in vivo, mice; conditions: for Cures / Median Survival: 5-day ON 2-day OFF; for Mean Tumor Vol / TGI: Day 15; for BWC: mouse, in vivo
[3] = 0.15 mg/kg 5-day ON 2-day OFF x 4 cycles
[4] = 0.5 mg/kg 5-day ON 2-day OFF x 4 cycles
[5] = 1.4 mg/kg 5-day ON 2-day OFF x 4 cycles

Q: `CC(=O)N[C@@H](Cc1c[nH]c2ccccc12)C(=O)N[C@@H](CCC(=O)C=[N+]=[N-])C(=O)OC(C)C` [Compound 1, Isopropyl (S)-2-((S)-2-acetamido-3-(1H-indol-3-yl)propanamido)-6-diazo-5-oxohexanoate] was tested. Which ILS ([1]; Cpd. 1 0.3 mpk/0.1 mpk) did it give?
A: 114.29%

Q: And the “RTV at day 12” value ([1]; Cpd. 1 0.3 mpk/0.1 mpk)?
A: 1.67 ± 0.03

Q: What about the MST ([1]; Cpd. 1 0.3 mpk/0.1 mpk) of the same compound?
A: 30 days

Q: And the ILS ([1]; Cpd. 1 1 mpk/0.3 mpk)?
A: 135.71%

Q: And the “RTV at day 12” value ([1]; Cpd. 1 1 mpk/0.3 mpk)?
A: 0.36 ± 0.09

Q: And the MST ([1]; Cpd. 1 1 mpk/0.3 mpk)?
A: 33 days

Q: And the ILS ([1]; Cpd. 1 3 mpk/1 mpk)?
A: 135.71%

Q: What about the “RTV at day 12” value ([1]; Cpd. 1 3 mpk/1 mpk) of the same compound?
A: 0.11 ± 0.03

Q: And the MST ([1]; Cpd. 1 3 mpk/1 mpk)?
A: 33 days

Q: And the T/C ([1]; Cpd. 1 0.3 mpk/0.1 mpk)?
A: 7.02%

Q: What about the TGI ([1]; Cpd. 1 0.3 mpk/0.1 mpk) of the same compound?
A: 97.27%

Q: What about the T/C ([1]; Cpd. 1 1 mpk/0.3 mpk) of the same compound?
A: 1.51%

Q: And the TGI ([1]; Cpd. 1 1 mpk/0.3 mpk)?
A: 102.87%

Q: What about the T/C ([1]; Cpd. 1 3 mpk/1 mpk) of the same compound?
A: 0.46%

Q: And the TGI ([1]; Cpd. 1 3 mpk/1 mpk)?
A: 103.98%

Q: And the Cures ([2]; Compound 1 0.15 mg/kg)?
A: 0%

Q: And the “Median Survival” value ([2]; Compound 1 0.15 mg/kg)?
A: 26 days

Q: What about the Cures ([2]; Compound 1 0.5 mg/kg) of the same compound?
A: 0%

Q: What about the “Median Survival” value ([2]; Compound 1 0.5 mg/kg) of the same compound?
A: 36 days

Q: What about the Cures ([2]; Compound 1 1.4 mg/kg) of the same compound?
A: 0%

Q: And the “Median Survival” value ([2]; Compound 1 1.4 mg/kg)?
A: 37 days

Q: What about the “Mean Tumor Vol” value [2, 3] of the same compound?
A: 188 ± 29 mm^3

Q: And the TGI [2, 3]?
A: 76%

Q: What about the “Mean Tumor Vol” value [2, 4] of the same compound?
A: 150 ± 21 mm^3

Q: And the TGI [2, 4]?
A: 88%

Q: What about the “Mean Tumor Vol” value [2, 5] of the same compound?
A: 106 ± 16 mm^3

Q: What about the TGI [2, 5] of the same compound?
A: 91%

Q: And the BWC ([2]; 0.15 mg/kg)?
A: 7%

Q: What about the BWC ([2]; 0.5 mg/kg) of the same compound?
A: 1.4%

Q: What about the BWC ([2]; 1.4 mg/kg) of the same compound?
A: −11%

From patent US20220117938A1, “COMBINATON THERAPY WITH A DON PRODRUG AND AN IMMUNE CHECKPOINT INHIBITOR” (DRACEN PHARMACEUTICALS, INC., priority 2019, published 2022)
